Consider 3 substances from patent US6416753B1, “Method for modulating apoptosis” (The General Hospital Corporation, priority 1996, dated 2002).

One assay concerns DRG neurons. The experiment in a line: Trophic factor deprivation of primary DRG neurons, healthy neurons counted. It counts as cell-based, mouse. To be noted: for Inhibition of trophic factor withdrawal-induced apoptosis: 100 ng/ml. On the procedure:
Neuronal trophic factor deprivation was assayed as follows. Post-natal day 1 mouse DRG neurons were isolated, dissociated with trypsin for one hour at 37° C., and plated in a 8 camber poly-lysine/laminin (Sigma, St. Louis, Mo.) coated slide. Wells were seeded at approximately 1000 neurons/well (8 wells/mouse). Neurons were cultured in Ham's nutrient F-12 supplemented with 20% FCS (Biowhittaker, Walkesvill, Md.), NGF (200 ng/ml) (Sigma, St. Louis, Mo.), BDNF (100 ng/ml) (Preprotech, Rocky Hill, N.J.), glutamine (2 mM), and penicillin/streptomycin. The medium was replaced daily with either trophic factor containing medium (TF(+))=20% FCS and NGF (200 ng/ml), or trophic factor deficient medium, TF(−)=serum and NGF-free medium in the presence of saturating concentration of mouse NGF monoclonal antibody (100 ng/ml) (Boehringer Mannheim, Indianapolis, Ind.), and IL-IRA (100 ng/ml unless otherwise indicated in the text). Healthy neurons were counted under a phase contrast microscope 24 and 48 hours following the media change.

In another assay the test system is COS cells. The experiment in a line: Cell death of COS cells transfected with Ice-lacZ / Ich-1L-lacZ / proIL-1β, round blue cells scored. It counts as cell-based. On the procedure: COS cells were plated (2×10^4) in 6-well plates in DMEM with 10% FCS. After 12 hours the wells were washed with serum and antibiotic free medium, and transfected using lipofectamine with either Ice-lacZ, Ich-1L-lacZ, βactin-lacZ(1 μg) or with proIL-1β (0.5 μg) for 3 hours. The sequence for Ich-1L is shown in FIG. 7 and the sequences of human ICE and pro- IL-1β are found respectively in Thornsberry et al., Nature 356:768-774 (1992) and in J. Immunol. 137:3644-3648, 1986. The medium was then removed and DMEM with 10% FCS added. IL-1Ra (40 ng/ml) was then added to the appropriate wells, and after one hour IL-1β (100 ng/ml) was added. X-gal reaction was performed 36 hours following the transfection and percentage of round blue (dead) cells were scored (Miura, M., et al., Cell 75: 653 (1993))

The test system of another assay is cerebral infarct. To be noted: rat model; Relton & Rothwell 1992; cited from earlier work.
The subject of assay [1] is HeLa cells. The experiment in a line: Hypoxia-induced apoptosis of HeLa cells, viability by trypan blue exclusion. It counts as cell-based. On the procedure:
(§1) Hypoxia-induced apoptosis was studied as follows. HeLa and HeLa/CrmA cells (Miura, M., et al., Proc. Natl. Acad. Sci. USA. 92:8318-8322, 1995) were seeded in 35 mm dishes at a density of 6×10^4/dish in DMEM/10% FCS and grown overnight. The medium was then changed and factors were added (IL-1Ra, R & D, Minneapolis, Minn.), IL-1 antibody (Calbiochem, San Diego, Calif.), or IL-1 type-1 receptor antibody (R & D, Minneapolis, Minn.). Dishes were placed in an anaerobic chamber with a BBL GasPack Plus (Becton-Dickenson, USA), which reduced the oxygen concentration to less than 100 p.p.m. within 90 minutes. After 16 hours, cells were removed from the chamber, immediately trypsinized and scored for viability by trypan blue exclusion. Inhibition of ^125I IL-1β binding by IL-1Ra which was added for 2 hrs at 37° C. After addition of BSA (1 mg/ml) to the medium, cells were incubated at 4° C. for 15 minutes, and then ^125IL-1β (100 ng/ml) was added at 4° C. for 1 hr. For detection of ^125IL-1β binding, cells were treated with 50 mM glycine-HCl, pH 2.6 for 1 min, and quantitated by γ-counting.
Hypoxia was produced as described in Example 1. IL-1β (100 ng/ml) was added as the cells were placed into the hypoxia chamber (90 min. are required to reach oxygen concentrations of 100 p.p.m.). […] Cells were then treated as above with glycine and radioactivity scored.

The target in assay [2] is T1, IL-1 receptor (Homo sapiens, UniProt P14778).
T1 construct: endogenous in cells; host or cells: HeLa cells
T1 sequence (P14778 18-569): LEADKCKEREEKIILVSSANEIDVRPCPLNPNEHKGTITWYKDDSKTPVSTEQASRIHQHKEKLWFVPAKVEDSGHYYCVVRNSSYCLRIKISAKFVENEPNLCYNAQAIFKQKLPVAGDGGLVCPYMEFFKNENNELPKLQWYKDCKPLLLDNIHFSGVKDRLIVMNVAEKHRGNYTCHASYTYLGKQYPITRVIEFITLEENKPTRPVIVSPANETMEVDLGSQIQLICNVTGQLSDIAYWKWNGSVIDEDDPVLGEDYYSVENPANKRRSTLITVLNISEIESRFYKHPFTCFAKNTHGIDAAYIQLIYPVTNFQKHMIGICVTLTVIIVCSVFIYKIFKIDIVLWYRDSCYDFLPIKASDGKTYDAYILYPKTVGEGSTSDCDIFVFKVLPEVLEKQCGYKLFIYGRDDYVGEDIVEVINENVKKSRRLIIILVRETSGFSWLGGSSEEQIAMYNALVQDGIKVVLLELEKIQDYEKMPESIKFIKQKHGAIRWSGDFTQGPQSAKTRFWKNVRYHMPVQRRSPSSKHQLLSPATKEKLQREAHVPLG
The assay can be described thus: Inhibition of 125I IL-1β receptor binding in HeLa cells. To be noted: IL-1Ra added for 2 hrs at 37° C. On the procedure: as §1

The subject of assay [3] is HeLa cells. The assay can be described thus: TNF-α induced cell death of hydroxyurea (G1/S) arrested HeLa cells. It counts as cell-based. To be noted: HU treated, G1/S phase arrested HeLa cells; IL-1Ra 40 ng/ml. On the procedure: (§2) HeLa, HeLa/CrmA, and L929 cells were seeded (2×10^4) in a 24 well plate and grown overnight in DMEM with 10% FCS. After 12 hours, the cells were washed 3 times with serum free DMEM, and hydroxyurea (HU) (2.5 mM) (Sigma, St. Louis, Mo.) was added to the HeLa and HeLa/CrmA cells Meikrantz, W., et al., Proc. Natl. Acad. Sci. U.S.A. 91: 3754 (1994)). After five hours, IL-1Ra (40 ng/ml) was added to the appropriate wells, and one hour later either TNF-α or mature IL1β were added. Twenty-four hours later, IL-1Ra was again added to the appropriate wells, and cell death was evaluated by trypan blue exclusion 60 hours after the initial addition of HU. Each condition was done three times in duplicate and 200 cells counted per well. For the photographs cells were grown on 2 well slides, and for nuclear morphology determination cells were fixed in 4% paraformaldehyde and incubated with Hoechst dye #33258 (10 μg/ml) (Sigma, St. Louis, Mo.).

Assay [4] concerns HeLa cells. The experiment in a line: HeLa cell death induced by TNF-α and cycloheximide. It counts as cell-based. To be noted: data not shown.
The next assay has as its system L929 cells. The assay can be described thus: TNF-α induced cell death of L929 cells, trypan blue exclusion. The class given is cell-based. To be noted: IL-1Ra 40 ng/ml. On the procedure: as §2, with “After” for “HeLa, HeLa/CrmA, and L929 cells were seeded (2×10^4) in a 24 well plate and grown overnight in DMEM with 10% FCS. After”, “Louis, Mo.) was added to the HeLa and HeLa/CrmA cells Meikrantz, W., et al., Proc.” left out

In assay [5] the test system is HeLa cells. The assay can be described thus: Mature IL-1β induced cell death of hydroxyurea (G1/S) arrested HeLa cells. To be noted: G1/S phase arrested HeLa cells. It counts as cell-based. On the procedure:
as §2

Another assay concerns HeLa and L929. The experiment in a line: Apoptosis of healthy proliferating cells exposed to mature IL-1β alone. It counts as cell-based. To be noted: most healthy proliferating cells including HeLa and L929.
For assay [6], the target named is T1, IL-1 receptor. The assay can be described thus: IL-1 receptor binding assay (receptor down-regulation) in HeLa cells. The class given is cell-based. To be noted: 100 ng/ml 125I IL-1β. On the procedure:
Hypoxia was produced as described in Example 1. IL-1β (100 ng/ml) was added as the cells were placed into the hypoxia chamber (90 min. are required to reach oxygen concentrations of 100 p.p.m.). IL-1 receptor binding assay: HeLa cells (10^6) were seeded in 10 cm dishes and grown overnight. Media was then exchanged containing 1 mg/ml of BSA and 100 ng/ml of ^125I IL-1β at 4° C. for 1 hr. After washing twice with cold medium, the cells were incubated with fresh warm medium at 37° C. for 0, 30, 60 and 120 minutes. Cells were then treated as above with glycine and radioactivity scored.

In assay [7] the target is IL-1 type-1 receptor on HeLa cells (UniProt P14778). The assay can be described thus: cell-based or functional assay.

Regarding “IL-1Ra: a naturally occurring cytokine which binds to the IL-1 receptor, blocking IL-1 mediated signal transduction”, in the assay on DRG neurons (40 ng/ml, 24 hours), the “Inhibition of neuronal apoptosis” value is listed as 43.5%. Further, the “Inhibition of trophic factor withdrawal-induced apoptosis” value in the assay with DRG neurons (24 hours) came out at 69.2%; in the assay on DRG neurons (48 hours), 37.8%. Further, the “Inhibition of death of COS cells expressing Ice-lacZ or Ich-1L-lacZ with proIL-1β, or with extracellular TNF-α or mature IL-1β” value in the assay on COS cells (IL-1Ra 40 ng/ml) was “significantly inhibited”. For the same substance, in the assay on cerebral infarct, the “Reduction of cerebral infarct size following ischemia” value was 50%. The “Inhibition of hypoxia-induced cell death” value in the assay on HeLa cells [1] (HeLa cells, 16 hours hypoxia) is given as “inhibited hypoxia-induced cell death”. For the same substance, the “Blocking of 125I-IL-1β binding” value in the assay with IL-1 receptor [2] is on record as “blocks”. Further, in the assay on HeLa cells [3], the “Inhibition of TNF-α induced HeLa cell death” value is 56.0%. For the same substance, the “Protection from death induced by TNF-α and cycloheximide” value with HeLa cells [4] was “protected”. For the same substance, the “Protection from TNF-α induced death” value in the assay with L929 cells was “up to 64.9%”. Also, the “Inhibition of mature IL-1β induced cell death” value in the assay on HeLa cells [5] was “inhibited”.

On to “IL-1β: mature 17.5 kD interleukin-1β, cytokine produced by ICE cleavage of prointerleukin-1β”, for which the “Induction of apoptosis in COS cells by the exogenous cytokine alone” value in the assay with COS cells (COS cells without Ice/Ich-1L transfection) was “did not induce apoptosis”. The “Induction of cell death in Ice-lacZ or Ich-1L-lacZ transfected COS cells” value in the assay with COS cells (extracellular cytokine, 36 hours after transfection) is recorded as “efficiently induced cell death”. Also, the “Induction of apoptosis of healthy proliferating cells” value with HeLa and L929 is given as “does not induce apoptosis”. The “Survival of HeLa cells preincubated with exogenous IL-1β under hypoxia” value in the assay on HeLa cells [1] (IL-1β 100 ng/ml added as cells were placed into the hypoxia chamber, control 10.1%) turned out to be 58.7%. Further, the “Down-regulation of the IL-1 receptor” value with IL-1 receptor [6] is “significantly down-regulated”. The “Cell death induced by exogenous mature IL-1β” value in the assay with HeLa cells [5] (100 ng/ml) came out at 83.7%.

In assay [7], “mature IL-1β (from UniProt P01584 117-269) (ligand)” gave a cell death of G1/S phase arrested (HU treated) HeLa cells treated with exogenous mature IL-1β of 83.7% and a survival of HeLa cells under hypoxia after preincubation with exogenous IL-1β (100 ng/ml) of 58.7%.
